The text below walks through data of US12594256B2, “A19-144, A2-73 and certain anticholinesterase inhibitor compositions and method for anti-seizure therapy” (priority 2014, dated 2026).

Read-outs that look alike come from different tables or passages of the source.

Broadly, the IC50 is the concentration that inhibits the measured activity by half. Usually Cmax stands for the maximum level reached in the sampled fluid or tissue.

The nature of data set [1]: Pharmacokinetics of metabolite AV19-144 in plasma after oral AV2-73 (LC-MS/MS). The data set is classed as in vivo. Conditions: for MRT: read-out: mean residence time of AV19-144. On the procedure: After separation from human plasma analytes were injected into a LC-MS/MS. […] A weighted (1/x) regression 2nd order was performed to determine the concentration of the analytes. The study was conducted in accordance with the Principles of Good Laboratory Practice (GLP) as described under § 19, German Chemical Law. The validation based on the EG-Dok.

Data set [2] addresses σ2 sites (Homo sapiens, UniProt Q5BJF2). Conditions: reported binding analyses; cited from earlier work.
Data set [3] deals with Aβ25-35-induced toxicity. Nature of the data set: Aβ25-35 model, pre- and post-peptide administration schedules (Y maze, passive avoidance, hippocampal lipid peroxidation). The class given is in vivo, mice. Conditions: for anti-amnesic and neuroprotective effect against amyloid toxicity: drug administered before or after the amyloid peptide challenge.
Data set [4] concerns the target muscarinic M1-M4 receptors. Conditions: screening profile; cited from earlier work.
The subject of data set [5] is seizures. Nature of the data set: Seizure prophylaxis in single subjects (Examples 1-6). The data set is classed as in vivo, human. As to the method:
A person is experiencing 4 to 7 seizures per day with a baseline of 6.6 seizures per day. A19-144 is administered daily at 2.0 mg for 5 days.
The subject is administered low dose donepezil (4 mg daily) for 5 days cotimely with continued A19-144 administration daily at 2.0 mg for 5 days.
A person is experiencing 6 to 8 seizures per day with a baseline of 6.6 seizures per day. A19-144 is administered daily at 2.0 mg for 5 days.
The subject is administered low dose Eslicarbazepine acetate at 600 mg/day; for 5 days cotimely with continued A19-144 administration daily at 2.0 mg for 5 days.
A person is experiencing seizures 3.2 per day. The subject is administered lacosamide at 60 mg two times per day for 5 days and cotimely administration of A19-144 daily at 2.0 mg for 5 days.
The person is experiencing an average of 3.3 seizures per day. The subject is administered Levetiracetam at 400 mg two times per day for 5 days and cotimely administration of 3.0 mg of A19-144 daily for 5 days.

Data set [6] concerns the target NMDA receptors. Conditions: screening profile; cited from earlier work.
In data set [7] the test system is Aβ25-35-induced toxicity. Conditions: cited from earlier work.
Data set [8] concerns sodium channel site 2. Conditions: screening profile; cited from earlier work.
Data set [9] has as its target σ1 (Homo sapiens, UniProt Q99720). Conditions: as compared with σ1 sites (so in the source); cited from earlier work.
Data set [10] deals with sigma-1 receptors (Homo sapiens, UniProt Q99720). Conditions: believed to bind; cited from earlier work.
Chain of sigma-1 receptors (Q99720 whole entry): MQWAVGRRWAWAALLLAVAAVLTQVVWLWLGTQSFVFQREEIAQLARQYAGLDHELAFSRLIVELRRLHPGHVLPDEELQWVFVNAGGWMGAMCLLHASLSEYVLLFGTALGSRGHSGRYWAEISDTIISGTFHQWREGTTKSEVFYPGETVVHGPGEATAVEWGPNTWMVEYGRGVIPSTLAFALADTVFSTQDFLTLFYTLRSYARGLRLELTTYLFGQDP
Data set [11] deals with muscarinic acetylcholine receptors. Conditions: believed to bind; cited from earlier work.
Setting [12] is: 0.3 mg/kg ip once a day, day 7 to day 13 after Aβ25-35, measured 14 days after Aβ25-35.
[13] abbreviates: 0.1 or 0.3 mg/kg ip once a day, day -7 to day -1 before Aβ25-35, 7 days after Aβ25-35.

Chain of σ1 (Q99720 whole entry): as above
Chain of σ2 sites (Q5BJF2 whole entry): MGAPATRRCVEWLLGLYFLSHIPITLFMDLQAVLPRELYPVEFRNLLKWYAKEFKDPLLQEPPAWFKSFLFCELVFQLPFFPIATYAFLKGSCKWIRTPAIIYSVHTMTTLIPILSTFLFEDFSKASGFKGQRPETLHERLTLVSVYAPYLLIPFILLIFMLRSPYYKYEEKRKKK

As to `CN(C)CC1CCOC1(c1ccccc1)c1ccccc1.Cl` (centres unmarked) [A2-73, 1-(2,2-diphenyltetrahydrofuran-3-yl)-N,N-dimethylmethanamine hydrochloride], the “biotransformation of AV2-73 to main metabolite AV19-144” value in data set [1] (after oral administration) is “rapid and extensive biotransformation”. In addition, in data set [2], the “affinity for σ2 sites” value is “no affinity”. In data set [3], the “anti-amnesic and neuroprotective effect against amyloid toxicity” value was “effective in pre- and post-protection”. Also, the half-maximal inhibitory concentration (IC50) in data set [4] is 3.3 to 5.2 µM; in data set [6] it was 8 µM; in [8] it was 5.1 µM. Moreover, the “results of Examples 1 through 6 (seizure prophylaxis)” value in data set [5] (A2-73 substituted for A19-144) is “similarly effective”. Further, the “Aβ25-35-induced endogenous Aβ1-42 seeding” value in [7] (reported) is listed as “decreasing”. In addition, the “selectivity for the σ1 subtype” value in [9] is “better selectivity for the σ1 subtype”.

`CNCC1CCOC1(c1ccccc1)c1ccccc1.Cl` (centres unmarked) [A19-144, 1-(2,2-diphenyltetrahydrofuran-3-yl)-N-methylmethanamine hydrochloride]: in [1] (human, oral, across the 10 to 60 mg AV2-73 dose steps, plasma, FIG. 1), the highest concentration (Cmax) lay in the range of 1.31 to 22.3 ng/mL. Moreover, in [1] (human, oral, across the 10 to 60 mg AV2-73 dose steps, plasma, FIG. 1, read-out: mean terminal elimination half-life t1/2 of AV19-144), the half-life was in the range of 8.56 to 28.7 h. The MRT in data set [1] (human, plasma, oral, after 10 mg AV2-73, FIG. 2) amounted to 14.3 h; in data set [1] (human, plasma, oral, after 60 mg AV2-73, FIG. 2) it was 42.7 h. Besides, the “affinity for sigma-1 receptors” value in data set [10] was “low micromolar range”. For the same compound, in data set [3] (setting [12]), the lipid peroxidation increase entry is on record as “effective”. Besides, the memory deficits entry in data set [3] (setting [12]) is given as “effective”. Moreover, in [3] (setting [13]), the “Aβ25-35-induced lipid peroxidation in the hippocampus” value is “blocks”. Besides, the “Aβ25-35-induced memory deficits (spontaneous alternation in the Y maze and passive avoidance response)” value in data set [3] (setting [13]) is given as “blocks”. Moreover, the “anti-amnesic and neuroprotective effect against amyloid toxicity” value in [3] was “effective in pre- and post-protection”. Moreover, the “Aβ25-35-induced toxicity and learning impairments” value in data set [3] (injected repeatedly one week after the peptide) is reported as “able to reverse”. The seizures per day in data set [5] (Example 1: person, baseline 6.6 per day, 2.0 mg daily for 5 days, for 8 weeks post dosing) is 2.2 per day; in [5] (Example 3: person, baseline 6.6 per day, 2.0 mg daily for 5 days, for 8 weeks post dosing), 1.2 per day; in data set [5] (person of Example 1, at 6 months post dosing) it was 2.2 per day. For the same compound, in data set [5] (person of Example 3, at 6 months post dosing), the “seizures per day (average)” value is 1.2 per day. Further, the “Aβ25-35-induced P-Akt decrease and P-GSK-3β increase” value in [7] (Lahmy et al. 2013) is given as “blocked”. In data set [7] (in the dose-range tested), the “hyperphosphorylation of Tau on physiological (AT-8) and pathological (AT-100) epitopes” value is recorded as “attenuated”. The “oxidative stress, caspases induction, cellular loss and learning and memory deficits” value in data set [7] (mice one week after injection of oligomeric Aβ25-35 (Villard et al. 2011)) is recorded as “attenuating”. Moreover, the “neuroprotection against amyloid toxicity” value in [7] (mice, reported) is “neuroprotective potential”. Also, the “affinity for muscarinic acetylcholine receptors” value in [11] was “low micromolar range”.
